Assay results as given in PMC5607274, “An iterative compound screening contest method for identifying target protein inhibitors using the tyrosine-protein kinase Yes” (Scientific Reports, 2017).

Target: T1, human recombinant Yes [a.a. 2–543 (end)] (Homo sapiens, UniProt P07947)
T1 construct: human recombinant Yes [a.a; 2–543 (end)]; purchased BPS Bioscience 40488
Assay: ADP-Glo kinase assay, inhibition rates of Yes phosphorylation activity (first and second screening)
Format: biochemical
Conditions: 10 μmol L−1 compound; for First screening IR (inhibition rate): mean of n = 4 wells; for Second screening IR (inhibition rate): dissolved from fresh powder, n = 4
Method in brief: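 Hits from a first pass were rescreened after re-dissolution from fresh powder. The first pass reported the mean inhibition rate of quadruplicate wells per compound. Activity was that of recombinant human Yes [a.a. 2–543] kinase, read out with the ADP-Glo ADP-detection method.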

T1 sequence (P07947 2-543): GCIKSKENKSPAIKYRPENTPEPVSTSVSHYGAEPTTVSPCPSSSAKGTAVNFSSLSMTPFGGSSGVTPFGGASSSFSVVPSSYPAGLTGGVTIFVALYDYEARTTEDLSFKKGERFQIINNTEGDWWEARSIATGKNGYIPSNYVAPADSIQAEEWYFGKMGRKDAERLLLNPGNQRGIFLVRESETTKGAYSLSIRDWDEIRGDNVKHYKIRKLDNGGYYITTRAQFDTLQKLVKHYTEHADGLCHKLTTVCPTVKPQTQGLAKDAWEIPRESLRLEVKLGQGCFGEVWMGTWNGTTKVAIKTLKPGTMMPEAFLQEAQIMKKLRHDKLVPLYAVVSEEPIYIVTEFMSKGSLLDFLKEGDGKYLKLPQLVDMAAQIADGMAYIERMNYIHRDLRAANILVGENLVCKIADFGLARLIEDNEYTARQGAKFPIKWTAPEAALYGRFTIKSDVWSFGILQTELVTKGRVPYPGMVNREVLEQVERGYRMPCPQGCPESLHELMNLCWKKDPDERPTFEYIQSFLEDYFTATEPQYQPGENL

| SMILES | First screening IR (inhibition rate) [%] | Second screening IR (inhibition rate) [%] |
| --- | --- | --- |
| C=CCn1c(SCc2cc(=O)n3ccsc3n2)nnc1-c1ccncc1 [Compound Z24172012] | 4 |  |
| CC(Sc1n[nH]c(-c2cccs2)n1)C(=O)c1c[nH]c2ccccc12 (centres unmarked) [Compound Z19450299] | 17 |  |
| Cc1noc(C)c1CC(=O)NN=C(c1ccccc1)c1ccccc1 [Compound Z79575803] | -9 |  |
| CC(C)c1noc2nc(-c3ccncc3)cc(C(=O)O)c12 [Compound Z56646434] | -2 |  |
| CCCN1CCN(c2ccc(S(=O)(=O)NC3CCC(C)CC3)cc2[N+](=O)[O-])CC1 (centres unmarked) [Compound Z31152357] | -14 |  |
| Cc1ccc(CNc2nc(-c3ccc(O)c(C(N)=O)c3)cs2)cc1 [Compound Z48851233] | 10 |  |
| COc1ccc(/C=C2/CC(C)Cc3c2nc2ccccc2c3C(=O)O)c(OC)c1 (centres unmarked) [Compound Z46107821] | -10 |  |
| COc1ccc(-n2nnc3c4c(c(Nc5ccc(C)cc5)cc32)C(=O)c2ccccc2C4=O)cc1 [Compound Z56857970] | 7 |  |
| O=c1c2ccc(C(F)(F)F)cc2nc2n1CC/C2=C/c1cccnc1 [Compound Z45931417] | 0 |  |
| O=C(CSc1nnc(-c2c[nH]c3ccccc23)n1-c1ccc(Cl)cc1)N1CCNC1=O [Compound Z19511505] | 13 |  |
| CC(Sc1nnc2ccccn12)C(=O)Nc1nc(-c2ccc(F)c(F)c2)cs1 (centres unmarked) [Compound Z20241790] | 21 |  |
| O=C(NCCOc1ccc(Cl)cc1)c1ccc2nc[nH]c2c1 [Compound Z73381327] | 12 |  |
| CCN(c1ccccc1)S(=O)(=O)c1ccc(C(=O)Nc2ccc(S(=O)(=O)N(C)C)cc2)cc1 [Compound Z29267150] | 2 |  |
| Cc1cc(SCC(=O)c2cc(C)n(-c3ccccc3F)c2C)nc2ccccc12 [Compound Z20243606] | 5 |  |
| Cc1c(-c2ccc(O)cc2)nc2ccc(Cl)cc2c1-c1ccccc1.Cl [Compound Z48950829] | 33 | 14 |
| Cc1ccc(SCC(=O)OCC(=O)Nc2ccc3[nH]c(=O)[nH]c3c2)cc1C [Compound Z16616292] | -13 |  |
| COc1ccc(C(N)=O)c(OCc2nc3ccccc3nc2C)c1 [Compound Z26325749] | 35 |  |
| Cc1ccc(C(=O)C(Sc2nnc(C3COc4ccccc4O3)n2C)c2ccc(C)cc2)cc1 (centres unmarked) [Compound Z24312958] | 0 |  |
| CCOC(=O)c1c(NC(=O)c2ccc(C(C)(C)C)cc2)n(CCCN2CCOCC2)c2nc3ccccc3nc12 [Compound Z56786201] | 4 |  |
| O=C(COc1cccnc1[N+](=O)[O-])Nc1ccc2c(c1)OCCO2 [Compound Z24778709] | 9 |  |
| CCn1c(-c2ccccc2)c(C(=O)CSc2nnc(-c3cccnc3)n2N)c2ccccc21 [Compound Z54072868] | -13 |  |
| Cc1ccccc1Nc1ncnc(N)n1 [Compound Z56791580] | 15 |  |
| COc1ccccc1NC(=O)c1ccc(NC(=O)COc2ccc(-c3ccccc3)cc2)cc1 [Compound Z19829052] | 3 |  |
| CC(Sc1nnc2ccccn12)C(=O)Nc1nc(-c2ccc(Cl)c(Cl)c2)cs1 (centres unmarked) [Compound Z20241270] | 4 |  |
| CCOC(=O)c1cc(-c2ccc(C#N)cc2)nc2c1c(C)nn2CCC#N [Compound Z56631499] | -7 |  |
| CCN(CC)S(=O)(=O)c1ccc(S(N)(=O)=O)cc1 [Compound Z45415602] | 1 |  |
| Cc1ccc(-c2csc3ncn(CC(=O)N4CCN(CC(=O)NC(C)(C)C)CC4)c(=O)c23)cc1C [Compound Z81619452] | -8 |  |
| O=C(CSc1ccc2c(c1)OCCCO2)Nc1ccc2c(c1)CCC2 [Compound Z18212324] | 14 |  |
| CCC1(c2ccc(F)cc2)NC(=O)N(CC(=O)Nc2ccc(C(=O)N(C)C)cc2)C1=O (centres unmarked) [Compound Z14224841] | 16 |  |

Next, values leading:

| First screening IR (inhibition rate) [%] | Second screening IR (inhibition rate) [%] | SMILES |
| --- | --- | --- |
| -3 |  | O=C(/C=C/c1ccco1)Nc1cc(-c2cccc([N+](=O)[O-])c2)sc1C(=O)O [Compound Z204341820] |
| -3 |  | Cc1oc(C)c(S(N)(=O)=O)c1C(=O)N1CCN(Cc2c(F)cccc2Cl)CC1 [Compound Z466082788] |
| 12 |  | Cc1ccc(-c2cc(C(=O)OCc3nc(C(C)(C)C)no3)n[nH]2)s1 [Compound Z355654248] |
| 10 |  | Cc1cccc(=O)n1CCCCNc1cnc2ccccc2n1 [Compound Z1084012684] |
| 6 |  | CC(C)(C)c1ccc(NC(=O)/C=C/c2cncc(O)c2)cc1 [Compound Z1574815119] |
| 8 |  | N#Cc1cccc(/C=C2/C(=O)Nc3ccccc32)c1 [Compound Z228595564] |
| 43 |  | O=C(NCCc1c[nH]c2cc(F)ccc12)c1cnc(-c2ccccc2)nc1 [Compound Z960870544] |
| 0 |  | CCC(C)NC(=O)c1ccc2c(=O)n(CC(C)C)c3nnc(SCC(=O)Nc4cccc(C)c4)n3c2c1 (centres unmarked) [Compound Z1157725046] |
| 44 |  | N#Cc1ccc(NC(=O)c2ccn(-c3ccc(F)cc3)n2)cc1 [Compound Z381174904] |
| 55 |  | N#Cc1cccc(C(=O)NCc2nc(-c3ccc(F)cc3)n[nH]2)c1 [Compound Z1137567528] |
| 9 |  | CC1(CCc2ccccc2)NC(=O)N(NC(=O)c2ccc(-n3cnc4ccccc43)cc2)C1=O (centres unmarked) [Compound Z136752996] |
| 3 |  | Cc1cccc(-n2c(SCC(=O)c3cc(C)n(CC4CCCO4)c3C)nnc2N2CCOCC2)c1 (centres unmarked) [Compound Z92479374] |
| 22 |  | O=C1CC(C(=O)Nc2cc(CC3CCCCC3)[nH]n2)c2ccc(F)cc2N1 (centres unmarked) [Compound Z729744666] |
| 15 |  | O=c1cc(-c2ccccc2)c2cc(Cl)c(OCCO)cc2o1 [Compound Z335913836] |
| -5 |  | Cc1nnc(NC(=O)C2CC(c3cccc(F)c3)=NO2)s1 (centres unmarked) [Compound Z381180216] |
| 55 |  | NC(=O)CCN(C(=O)CSc1ncc2ccccn12)c1ccccc1 [Compound Z166362686] |
| -5 |  | Cc1cc(NC(=O)c2cc3c(F)cccc3s2)n(CCC#N)n1 [Compound Z826713980] |
| 12 |  | Cc1c(C#N)c(NC(=O)CN2CCN(Cc3nc4ccccc4s3)CC2)n(CC2CCCO2)c1C (centres unmarked) [Compound Z125608446] |
| 44 |  | Cc1ccn2c(/C=C/C(=O)c3cccc(N4CCOC4=O)c3)cnc2c1 [Compound Z1263913876] |
| 3 |  | CN(CCO)c1ccc(S(C)(=O)=O)cc1S(C)(=O)=O [Compound Z199538264] |

| First screening IR (inhibition rate) [%] | Second screening IR (inhibition rate) [%] | SMILES |
| --- | --- | --- |
| 35 |  | CCNC(=O)c1ccc(NC(C)C(O)c2ccc(F)cc2)nc1 (centres unmarked) [Compound Z1798329942] |
| -8 |  | CCC(Sc1nc2ccccc2c2nc(CCN3CCCCC3)nn12)C(=O)Nc1ccc2c(c1)OCO2 (centres unmarked) [Compound Z1157834229] |
| 12 |  | c1nc(N2CCCC2c2ccsc2)c2[nH]cnc2n1 (centres unmarked) [Compound Z1343239610] |
| 14 |  | Cc1nc(NCCn2cccn2)c2cnn(-c3ccccc3)c2n1 [Compound Z751573116] |
| 33 | -26 | Cc1ccn2c(CNc3cc(C(N)=O)cc(F)c3C)cnc2c1 [Compound Z1462541066] |
| 3 |  | CSc1sc(NC(=O)c2n[nH]c(C(C)C)c2Br)nc1C [Compound Z1143428685] |
| 13 |  | CN(C)C(=O)Cc1ccccc1NCc1ccc(-n2ccnc2)cc1 [Compound Z1462566317] |
| 12 |  | CC(Sc1n[nH]c(/C=C/c2ccccc2)n1)c1nc(C(C)(C)C)no1 (centres unmarked) [Compound Z298272042] |
| 2 |  | FC(F)(F)c1ccnc(Nc2cn[nH]c2)n1 [Compound Z397745198] |
| -5 |  | CC(SCc1nc(N)nc(N(C)C)n1)C(=O)Nc1ccc(F)cc1F (centres unmarked) [Compound Z197454476] |
| 5 |  | COc1ccc(-n2ccc(C(=O)N3CCCCC3c3cn[nH]c3)n2)cc1 (centres unmarked) [Compound Z1198921141] |
| -14 |  | CN1C/C(=C/c2ccc(SC(F)(F)F)cc2)c2nc3ccccc3c(C(=O)O)c2C1 [Compound Z196352976] |
| -2 |  | O=C(Nc1cccc(COc2cccc(F)c2)c1)c1ccc(=O)[nH]n1 [Compound Z383786992] |
| 12 |  | O=C(CN1CCN(C(=O)c2cc(-c3ccccc3)nc3c2cnn3Cc2ccncc2)CC1)NC1CC1 [Compound Z109522106] |
| 11 |  | O=C(CCC1NC(=O)NC1=O)Nc1ccc(Oc2ccccc2Cl)cc1 (centres unmarked) [Compound Z168726218] |
| 39 |  | FC(F)(F)c1ccnc(Nc2ccc(NCc3ccccn3)cc2)n1 [Compound Z1192169075] |
| -3 |  | CC(SCc1nc(N)nc(N(C)C)n1)C(=O)Nc1ccc(F)cc1 (centres unmarked) [Compound Z232651902] |
| 1 |  | Fc1ccccc1-n1c(SCc2cccnc2)nnc1-c1ccccc1Cl [Compound Z316264326] |
| 55 |  | Cn1c(C(=O)Nc2ccc(NC(=O)c3ccco3)c(Cl)c2)cc2ccccc21 [Compound Z751335838] |
| 22 |  | Cc1c(C#N)c(NC(=O)CN2CCC(n3c(=O)[nH]c4ccccc43)CC2)n(Cc2cccs2)c1C [Compound Z130194258] |
